What is called MIC is the lowest concentration that inhibits growth of the organism. By ED50 is commonly meant the midpoint of the dose-response relation. A low value points to greater potency.

The test system of one assay is Escherichia coli EC-14. The assay can be described thus: Minimal inhibitory concentration in vitro by serial dilution method on Mueller Hinton agar. In kind it is cell-based. The following applies: disodium salts (10), E. coli EC-14, Mueller Hinton agar.
The next assay relates to P. aeruginosa CN-5. The assay can be described thus: Protection of mice from infection caused by Pseudomonas aeruginosa CN-5. In kind it is in vivo. The note with it: CN5, ip, inoculation = 7 × 10^3, two subc. inj. (mg/kg each) 1 and 5 hrs after intraperitoneal inoculation. The method, then:
Five representative compounds in the preceding examples are assayed for protection of mice from infection caused by Pseudomonas aeruginosa to give the effects as in the following table. | two subc. inj. (given mg/kg each) 1 and 5 | hrs after intraperitoneal inoculation | *inoculation = 7 × 10^3 -

A further assay relates to P. aeruginosa PS-24. The assay can be described thus: Protection of mice from infection caused by Pseudomonas aeruginosa PS-24. In kind it is in vivo. The following applies: PS24, ip, inoculation = 1 × 10^4, two subc. inj. (mg/kg each) 1 and 5 hrs after intraperitoneal inoculation. The method, then: Five representative compounds in the preceding examples are assayed for protection of mice from infection caused by Pseudomonas aeruginosa to give the effects as in the following table. | two subc. inj. (given mg/kg each) 1 and 5 | hrs after intraperitoneal inoculation | **inoculation = 1 × 10^4

For `COC1(NC(=O)C(C)C(=O)O)C(=O)N2C(C(=O)O)=C(CSc3nncs3)COC21` (centres unmarked) [Het=Tdz No. 1], in the assay with Escherichia coli EC-14 (EC14, Het=Tdz), the MIC was 0.39 mg/L.

`CCC(C(=O)O)C(=O)NC1(OC)C(=O)N2C(C(=O)O)=C(CSc3nncs3)COC21` (centres unmarked) [Het=Tdz No. 2]: the MIC in the assay on Escherichia coli EC-14 (EC14, Het=Tdz) is 0.2 mg/L.

In the case of `CCCC(C(=O)O)C(=O)NC1(OC)C(=O)N2C(C(=O)O)=C(CSc3nncs3)COC21` (centres unmarked) [Het=Tdz No. 3], in the assay on Escherichia coli EC-14 (EC14, Het=Tdz), the MIC came to 0.2 mg/L. On the same count and under the same terms, for `CCCCC(C(=O)O)C(=O)NC1(OC)C(=O)N2C(C(=O)O)=C(CSc3nncs3)COC21` (centres unmarked) [Het=Tdz No. 4] the value was 0.39 mg/L; for `C=CCC(C(=O)O)C(=O)NC1(OC)C(=O)N2C(C(=O)O)=C(CSc3nncs3)COC21` (centres unmarked) [Het=Tdz No. 5], 0.39 mg/L. For the compound `COC1(NC(=O)CC(=O)O)C(=O)N2C(C(=O)O)=C(CSc3nnnn3C)COC21` (centres unmarked) [Het=Tetr No. 1], the MIC in the assay with Escherichia coli EC-14 (EC14, Het=Tetr) was 1.56 mg/L. With `COC1(NC(=O)C(C)C(=O)O)C(=O)N2C(C(=O)O)=C(CSc3nnnn3C)COC21` (centres unmarked) [Het=Tetr No. 2], the MIC in the assay on Escherichia coli EC-14 (EC14, Het=Tetr) was determined as 0.2 mg/L.

As to `CCC(C(=O)O)C(=O)NC1(OC)C(=O)N2C(C(=O)O)=C(CSc3nnnn3C)COC21` (centres unmarked) [Het=Tetr No. 3], the minimal inhibitory concentration (MIC) in the assay with Escherichia coli EC-14 (EC14, Het=Tetr) stood at 0.1 mg/L. Same read-out and setting: for `COC1(NC(=O)C(C(=O)O)C(C)C)C(=O)N2C(C(=O)O)=C(CSc3nnnn3C)COC21` (centres unmarked) [Het=Tetr No. 5] the value was 0.39 mg/L; for `COC1(NC(=O)C(CC(C)C)C(=O)O)C(=O)N2C(C(=O)O)=C(CSc3nnnn3C)COC21` (centres unmarked) [Het=Tetr No. 6], 0.39 mg/L; for `CCCCCCC(C(=O)O)C(=O)NC1(OC)C(=O)N2C(C(=O)O)=C(CSc3nnnn3C)COC21` (centres unmarked) [Het=Tetr No. 7], 12.5 mg/L.

For `C=CCC(C(=O)O)C(=O)NC1(OC)C(=O)N2C(C(=O)O)=C(CSc3nnnn3C)COC21` (centres unmarked) [Het=Tetr No. 8], the MIC in the assay on Escherichia coli EC-14 (EC14, Het=Tetr) came out at 0.2 mg/L.

In the case of `CCCC(C(=O)O)C(=O)NC1(OC)C(=O)N2C(C(=O)O)=C(CSc3nnnn3C)COC21` (centres unmarked) [Het=Tetr R=n-C3 H7], in the assay on Escherichia coli EC-14 (EC14, Het=Tetr), the MIC amounted to 0.1 mg/L. Regarding `COC1(NC(=O)C(C(=O)O)c2ccc(O)cc2)C(=O)N2C(C(=O)O)=C(CSc3nnnn3C)COC21` (centres unmarked) [Reference, reference compound], the ED50 with P. aeruginosa CN-5 was determined as 44.5 mg/kg; with P. aeruginosa PS-24, 20.4 mg/kg. As for `COC1(NC(=O)C(C)C(=O)O)C(=O)N2C(C(=O)O)=C(CSc3nnnn3C)COC21` (centres unmarked) [compound 1], the values for the ED50 in the assay with P. aeruginosa CN-5 and in the assay with P. aeruginosa PS-24 were 22.3 mg/kg and 11.1 mg/kg, respectively. Consider `CCC(C(=O)O)C(=O)NC1(OC)C(=O)N2C(C(=O)O)=C(CSc3nnnn3C)COC21` (centres unmarked) [compound 2], for which the ED50 with P. aeruginosa CN-5 worked out at 22.2 mg/kg; with P. aeruginosa PS-24, 17.7 mg/kg. The like results for `COC1(NC(=O)C(C)C(=O)O)C(=O)N2C(C(=O)O)=C(CSc3nncs3)COC21` (centres unmarked) [compound 3] were, in that order, 33.8 mg/kg and 12.6 mg/kg. On the same counts, the results for `CCC(C(=O)O)C(=O)NC1(OC)C(=O)N2C(C(=O)O)=C(CSc3nncs3)COC21` (centres unmarked) [compound 4] are 32.5 mg/kg and 15.5 mg/kg.
